Values after ≈ are worked out from the molar mass of the structure shown. Where two headings read alike, the source gives them in different places.
What was measured:
[1] = LD50 when intravenously injected in male mice; type: in vivo
From the text: The growth-promoting agent of the present invention not only promotes the growth of animals, but also improves feed utilization efficiency. The agent is also effective for the treatment of bacterial diseases.

[2] = Growth promoting effect on chicks, 20 ppm in feed for 13 days (Table 3); type: in vivo; conditions: for Feed efficiency, 10 days / Feed efficiency, 13 days / Body weight gain ± standard error, 13 days / Body weight gain ± standard error, 10 days: 20 ppm in feed; for Feed efficiency, 10 days / Body weight gain comparative index, 10 days: 10th day; for Feed efficiency, 10 days: no antibiotic group 1.69; for Feed efficiency, 13 days / Body weight gain comparative index, 13 days: 13th day; for Feed efficiency, 13 days: no antibiotic group 1.76; for Body weight gain ± standard error, 13 days: chicks 8-21 days of age, measured on the 13th day; for Body weight gain ± standard error, 10 days: chicks from 8 days of age, measured on the 10th day; for Body weight gain comparative index, 10 days / Body weight gain comparative index, 13 days: weight gain of the control group regarded as 100
Procedure: In the same manner, another growth promoting tests were conducted on des-(4-epi-vancosaminyl)PA-42867-A and des-(4-epi-vancosaminyl-0-glucosyl)PA-42867-A by giving 20 ppm of the test drug to chicks of 8-21 days of age for 13 days, using Thiopeptin as a control.
The newly hatched chicks were fed until eight days of age with a feed mash (crude protein content (CP):23%) without addition of any antibiotic by means of the flat feeding. Then, the chicks were divided into four groups each containing 24 chicks (males and females, 12 each). Each group was placed in four cages after dividing into four unisexual sub-groups, each consisting of 6-7 chicks, and raised for 13 days with an animal feed of CP 18% with or without antibiotics. Thus, each of four groups received 20 ppm of des-(4-epi-vancosaminyl)PA-42867-A, 20 ppm of des(4-epi-vancosaminyl-0-glucosyl)PA-42867-A, 20 ppm of Thiopeptin, and no antibiotic, respectively.
Body weight gain and feed efficiency were measured on the 10th and the 13th day.

Cl. perfringens = type: cell-based, Clostridium perfringens; conditions: GAM agar, 24 hours at 37° C.
[3] = Growth promoting effect on chicks, 20 ppm in feed for 10 days (Table 2); type: in vivo; conditions: for Body weight gain, mean value ± standard error: chicks 8 to 18 days of age, 20 ppm in feed × 10 days; for Feed efficiency: chicks, no antibiotic group 1.70; for Body weight gain index: no antibiotic group = 100.0
Procedure: Growth promoting effect of PA-42867-A on chicks (8 days of age, Abaeker species) was determined using a known antibiotic, Thiopeptin, as a control. PA-42867-A and Thiopeptin were added to an antibiotic-free feed mash (crude protein content (CP): 18%) at a concentration of 20 ppm, and the chicks were raised for 10 days with the resulting feed according to the battery method. Specifically describing the method of experiment, newly hatched chicks were fed until 8 days of age with a feed ration of 23% CP by the flat feeding method, at which time the chicks were divided into three groups each containing 25-26 chicks (males and females, 12-13 chicks each) so that the average weights of the chicks in all groups were nearly the same. PA-42867-A group received 20 ppm of the antibiotic a day for 10 days, Thiopeptin group received 20 ppm for 10 days, and the control group received antibiotic-free feed of 18% CP for 10 days. The above feeding was conducted after dividing the chicks in each of these groups into sub-groups of 6-7 chicks and putting each sub-group in a cage (435×600×410 mm). The feeding was conducted for 10 days (until 18 days of age) at an environmental temperature of 26°±2°C. The effectiveness of the drug was evaluated based on the body weight gain and the feed efficiency observed during the 10 days period of the experiment.

Compound	LD50 [1] [mg/kg]	Feed efficiency, 10 days [2]	Feed efficiency, 13 days [2]	Body weight gain ± standard error, 13 days [2] [g]	Body weight gain ± standard error, 10 days [2] [g]	Body weight gain comparative index, 10 days [2]	Body weight gain comparative index, 13 days [2]	MIC (Cl. perfringens; strain 3C-01, origin chicken) [µg/mL]	MIC (Cl. perfringens; strain 6B-10, origin cow) [µg/mL]	MIC (Cl. perfringens; strain 9C-02, origin chicken) [µg/mL]	MIC (Cl. perfringens; strain 02441, origin chicken) [µg/mL]	MIC (Cl. perfringens; strain CW-1970, origin cow) [µg/mL]	MIC (Cl. perfringens; strain FC 2208/75, origin cow) [µg/mL]	MIC (Cl. perfringens; strain NCTC-8239, origin cow) [µg/mL]	MIC (Cl. perfringens; strain NCTC-8798, origin cow) [µg/mL]	MIC (Cl. perfringens; strain NCTC-10239, origin cow) [µg/mL]	MIC (Cl. perfringens; strain S-79, origin cow) [µg/mL]	MIC (Cl. perfringens; strain SP07, origin chicken) [µg/mL]	Feed efficiency compared with the group raised with antibiotic-free feed (in words) ([3]; 20 ppm × 10 days)	Body weight gain, mean value ± standard error [3] [g]	further results
CNC(CC(C)C)C(=O)NC1C(=O)NC(CC(N)=O)C(=O)NC2C(=O)NC3C(=O)NC(C(=O)NC(C(=O)O)c4cc(O)cc(O)c4-c4cc3ccc4O)C(OC3CC(C)(N)C(O)C(C)O3)c3ccc(c(Cl)c3)Oc3cc2cc(c3OC2OC(CO)C(O)C(O)C2OC2CC(C)(N)C(O)C(C)O2)Oc2ccc(cc2)C1O (stereo not drawn) [Compound 1, PA-42867-A]	1955	1.54	1.66	442.6 ± 7.8	328.9 ± 6.3	105.4	103.9	0.39 (≈ 0.25 µM)	0.2 (≈ 0.128 µM)	0.2 (≈ 0.128 µM)	0.39 (≈ 0.25 µM)	0.39 (≈ 0.25 µM)	0.39 (≈ 0.25 µM)	0.39 (≈ 0.25 µM)	0.39 (≈ 0.25 µM)	0.39 (≈ 0.25 µM)	0.39 (≈ 0.25 µM)	0.39 (≈ 0.25 µM)	better results in feed efficiency	332.0 ± 6.71	Body weight gain compared with the no-antibiotic control group and the Thiopeptin group (in words) ([3]; 20 ppm × 10 days, p<0.01): significantly high body weight gain; Feed efficiency ([3]; 20 ppm × 10 days): 1.53; Body weight gain index ([3]; 20 ppm × 10 days): 110.0
CNC(CC(C)C)C(=O)NC1C(=O)NC(CC(N)=O)C(=O)NC2C(=O)NC3C(=O)NC(C(=O)NC(C(=O)O)c4cc(O)cc(O)c4-c4cc3ccc4O)C(OC3CC(C)(N)C(O)C(C)O3)c3ccc(c(Cl)c3)Oc3cc2cc(c3OC2OC(CO)C(O)C(O)C2O)Oc2ccc(cc2)C1O (stereo not drawn) [Compound 2, des-(4-epi-vancosaminyl) PA-42867-A]	> 3000	1.62	1.66	447.4 ± 11.5	324.6 ± 8.3	104.0	105.0	1.56 (≈ 1.1 µM)	1.56 (≈ 1.1 µM)	1.56 (≈ 1.1 µM)	1.56 (≈ 1.1 µM)	1.56 (≈ 1.1 µM)	1.56 (≈ 1.1 µM)	1.56 (≈ 1.1 µM)	1.56 (≈ 1.1 µM)	1.56 (≈ 1.1 µM)	0.78 (≈ 0.551 µM)	1.56 (≈ 1.1 µM)	–	–	–
CNC(CC(C)C)C(=O)NC1C(=O)NC(CC(N)=O)C(=O)NC2C(=O)NC3C(=O)NC(C(=O)NC(C(=O)O)c4cc(O)cc(O)c4-c4cc3ccc4O)C(OC3CC(C)(N)C(O)C(C)O3)c3ccc(c(Cl)c3)Oc3cc2cc(c3O)Oc2ccc(cc2)C1O (stereo not drawn) [Compound 3, des-(4-epi-vancosaminyl-0-glucosyl)PA-42867-A]	205	–	–	–	–	–	–	0.78 (≈ 0.623 µM)	0.78 (≈ 0.623 µM)	0.78 (≈ 0.623 µM)	0.78 (≈ 0.623 µM)	0.78 (≈ 0.623 µM)	0.78 (≈ 0.623 µM)	0.78 (≈ 0.623 µM)	0.78 (≈ 0.623 µM)	0.78 (≈ 0.623 µM)	0.39 (≈ 0.311 µM)	0.78 (≈ 0.623 µM)	–	–	–
Thiopeptin [reference compound]	–	1.61	1.70	445.5 ± 11.1	319.5 ± 7.5	102.4	104.6	–	–	–	–	–	–	–	–	–	–	–	better results in feed efficiency	313.7 ± 8.80	Feed efficiency ([3]; 20 ppm × 10 days): 1.58; Body weight gain index ([3]; 20 ppm × 10 days): 103.9

From patent US4906612A (priority 1988, dated 1990)
